For data set [1], the system named is prostate cells not expressing PSMA (PC3). Put plainly: toxicity to prostate cells not expressing PSMA (FIG. 5). The class given is cell-based. The note with it: 25 and 50 mM concentrations. The source says:
(§1) The same analog was used to treat a PSMA-expressing prostate cells (LNCaP-FCG), ovarian cancer cells (HeLa) or prostate cells not expressing PSMA (PC3).

Another data set deals with HeLa. The data set is described as follows: lytic activity on cultured tumor cells, HeLa (FIG. 4, FIG. 5). Type of data set: cell-based. Here is the method:
(§2) This experiment, utilized a melittin analog having A [ε-γ]-Glu-[α-γ]-Glu at each of lysines 21 and 23: NH2-[…][ε-γ]-Glu-[α-γ]-Glu)-Arg-Lys([ε-γ]-Glu-[α-γ]-Glu)-Arg-Gln-Gln-COOH. (SEQ ID NO: 19) Two prostate tumors (PNCap and DU0145), two ovarian tumors (HeLa and SK-OV-3), one lung tumor (LLC 1) and one melanoma (B 16) were tested. Cultured cells were treated with 1, 10, 50 or 100 μM peptide.
as §1

A further data set has as its system SK-OV-3. Put plainly: lytic activity on cultured tumor cells, ovarian tumor SK-OV-3 (FIG. 4). The class given is cell-based. The settings on record: 1, 10, 50 or 100 μM peptide. How it is done: as §2
The subject of another data set is LLC 1. Put plainly: lytic activity on cultured tumor cells, lung tumor LLC 1 (FIG. 4). Type of data set: cell-based. The note with it: 1, 10, 50 or 100 μM peptide. How it is done: as §2
Another data set relates to DU0145. Put plainly: lytic activity on cultured tumor cells, prostate tumor DU0145 (FIG. 4). Type of data set: cell-based. The note with it: 1, 10, 50 or 100 μM peptide. Here is the method: as §2
In a further data set the test system is B 16. Put plainly: lytic activity on cultured tumor cells, melanoma B 16 (FIG. 4). The class given is cell-based. The settings on record: 1, 10, 50 or 100 μM peptide. Here is the method: as §2
The next data set deals with PNCap. Put plainly: lytic activity on cultured tumor cells, prostate tumor PNCap (FIG. 4). The settings on record: 1, 10, 50 or 100 μM peptide. The class given is cell-based. How it is done:
as §2

Data set [2] deals with PSMA-expressing prostate cells (LNCaP-FCG). The data set is described as follows: toxicity to PSMA-expressing prostate cells (FIG. 5). Type of data set: cell-based. The settings on record: 25 and 50 mM concentrations.
From the text: as §1

A further data set deals with mice. The data set is described as follows: toxicity of escalating doses in mice. The class given is in vivo. The note with it: 50, 100, 150 and 200 mM. Here is the method:
To assess the toxicity of this analog, mice were treated with escalating doses of analog, either subcutaneously or intravenously.

The test system of another data set is nucleated cells. The note with it: cited from earlier work.
Data set [3] concerns mouse L-cells. The data set is described as follows: ATP depletion assay (ATP bioluminescence), mouse L-cells (FIG. 3). The class given is cell-based. The note with it: 50 or 100 μM; 1 hour. An excerpt:
(§3) In order to obtain a more quantitative result, the assay was repeated and decrease in ATP levels was used as a surrogate marker for live versus dead cells. ATP plays a central role in the energy status of the cell and the regulation of enzymatic activity. The intracellular ATP level is strictly regulated. The assay of ATP has been used as a rapid and convenient measure of viable cell numbers. ATP level can be enzymatically determined with firefly luciferase, which specifically catalyzes the hydrolysis of ATP. The amount of light generated by this enzymatic reaction is directly related to the amount of ATP in the original sample.
(§4) For this purpose, the ATP Bioluminescence Assay Kit CLS II from Boehringer-Mannheim (Cat. No. 1699695) was employed. Briefly, 10^6 cells in 200 μl of medium containing the peptide, as above, were incubated at 37° C. in a CO2 incubator for 60 min. The cells were then lysed with 10 μl of 10% Triton X-100. Each lysate was transferred into a tube containing 155 μl of distilled water and 25 μl of stock luciferase and chemiluminescence was measured in a luminometer as directed by the manufacturer. As can been seen from FIG. 3, ATP is dramatically depleted in the presence of either 50 or 100 μM peptide, as compared to the controls.

In data set [4] the test system is mouse L-cells. The data set is described as follows: cell lysis assay, mouse L-cells (FIG. 1). Type of data set: cell-based. The settings on record: 50 μM; after 24 hours.
Data set [5] relates to human prostate cancer cells (LNCaP). Put plainly: cell lysis assay, LNCaP prostate tumor cells (FIG. 1). Type of data set: cell-based. The settings on record: 50 μM; after 15 minutes. Here is the method: For cell lysis assay, 10^6 LNCaP prostate tumor cells were cultured in 48-well plate in 200 μl culture medium containing different concentrations of the peptide. The culture medium for LNCaP cell was RPMI 1640 medium with 2 mM L-glutamine adjusted to contain 1.5 g/L sodium bicarbonate, 4.5 g/L glucose, 10 mM HEPES, 1.0 mM sodium pyruvate, 90%; fetal bovine serum 10%. […]

Data set [6] shares this test system. Put plainly: ATP depletion assay (ATP bioluminescence), LNCaP (FIG. 3). Type of data set: cell-based. The note with it: 50 or 100 μM; after 1 hour.
From the text: as §3, §4

Starred links: 1 amine or outer side, 2 acyl side, 3 side chain; linkers in the order of their positions; H or OH if unused. Groups on a side chain read outwards from the residue. No end group written: not given here. γGlu = O=C(O)[C@H](CCC(=O)[*:2])N[*:1]

With `CC[C@H](C)[C@H](NC(=O)CN)C(=O)NCC(=O)N[C@@H](C)C(=O)N[C@H](C(=O)N[C@@H](CC(C)C)C(=O)N[C@@H](CCCCN)C(=O)N[C@H](C(=O)N[C@@H](CC(C)C)C(=O)N[C@H](C(=O)N[C@H](C(=O)NCC(=O)N[C@@H](CC(C)C)C(=O)N1CCC[C@H]1C(=O)N[C@@H](C)C(=O)N[C@@H](CC(C)C)C(=O)N[C@H](C(=O)N[C@@H](CO)C(=O)N[C@@H](Cc1c[nH]c2ccccc12)C(=O)N[C@H](C(=O)N[C@@H](CCCCNC(=O)CC[C@H](NC(=O)CC[C@H](N)C(=O)O)C(=O)O)C(=O)N[C@@H](CCCNC(=N)N)C(=O)N[C@@H](CCCCNC(=O)CC[C@H](NC(=O)CC[C@H](N)C(=O)O)C(=O)O)C(=O)N[C@@H](CCCNC(=N)N)C(=O)N[C@@H](CCC(N)=O)C(=O)N[C@@H](CCC(N)=O)C(=O)O)[C@@H](C)CC)[C@@H](C)CC)[C@@H](C)O)[C@@H](C)O)C(C)C)C(C)C` [melittin analog], the toxicity to cells entry in data set [1] is reported as “relatively unaffected”; in the data set with HeLa (25 and 50 mM concentrations), “highly toxic”; in data set [2], “highly toxic”. Besides, the lytic activity entry in the data set with HeLa (1, 10, 50 or 100 μM peptide) was “strong lytic activity”; in the data set with SK-OV-3, “strong lytic activity”; with LLC 1, “strong lytic activity”; in the data set with DU0145 it was “strong lytic activity”; in the data set with B 16, “strong lytic activity”; in the data set with PNCap it was “strong lytic activity”. Further, the “tolerated concentration relative to concentration needed to kill a mouse using the unmasked melittin peptide” value in the data set on mice was 50-200 fold. Moreover, the “condition of mice after treatment” value with mice (subcutaneously or intravenously, weeks following treatment) was “remained healthy, apparently unaffected”.

Turning to “NH2-Gly-Phe-Ile-Ala-Thr-Leu-Cys-Thr-Lys-Val-Leu-Asp-Phe-Gly-Ile-Asp-Lys-Leu-Ile-Gln-Leu-Ile-Glu-Asp-Lys-CONH2 (H-GFIATLCTKVLDFGIDKLIQLIEDK-NH2; listed as Entamoeba histolytica) [Amoebapore Helix 3]”, in the data set on nucleated cells, the “concentration with cytolytic activity” value was 10 to 100 µM.

In the case of “amoebapore helix 3-γ-Glu-γ-Glu: 25-residue C-terminal amidated amoebapore helix 3 peptide with two γ-linked glutamates on the ε amino group of the C-terminal lysine (GFIATLCTKVLDFGIDKLIQLIEDK([γGlu-γGlu])-NH2; N-terminus assumed; SMILES CC[C@H](C)[C@H](NC(=O)CNC(=O)[C@H](Cc1ccccc1)NC(=O)[C@H](CC(=O)O)NC(=O)[C@H](CC(C)C)NC(=O)[C@@H](NC(=O)[C@H](CCCCN)NC(=O)[C@@H](NC(=O)[C@H](CS)NC(=O)[C@H](CC(C)C)NC(=O)[C@@H](NC(=O)[C@H](C)NC(=O)[C@@H](NC(=O)[C@H](Cc1ccccc1)NC(=O)CN)[C@@H](C)CC)[C@@H](C)O)[C@@H](C)O)C(C)C)C(=O)N[C@@H](CC(=O)O)C(=O)N[C@@H](CCCCN)C(=O)N[C@@H](CC(C)C)C(=O)N[C@H](C(=O)N[C@@H](CCC(N)=O)C(=O)N[C@@H](CC(C)C)C(=O)N[C@H](C(=O)N[C@@H](CCC(=O)O)C(=O)N[C@@H](CC(=O)O)C(=O)N[C@@H](CCCCNC(=O)CC[C@H](NC(=O)CC[C@H](N)C(=O)O)C(=O)O)C(N)=O)[C@@H](C)CC)[C@@H](C)CC)”, the “cell lysis by ATP depletion” value in the data set with mouse L-cells [3] is “remain unaffected”; in data set [6], “completely lysed”. Moreover, the cell lysis entry with mouse L-cells [4] is on record as “remain unaffected”; in [5], “completely lysed”.

The values are drawn from patent US7456146B2, “Lytic peptide prodrugs” (GHC Research Development Corporation, priority 2001, dated 2008).
